Data from the supplement of paper PMC6045584.
± gives the standard deviation of the averaged measurements.

Columns and labels:
[1] = compound: Cn1ncnc1[C@H]1c2n[nH]c(=O)c3cc(F)cc(c23)N[C@@H]1c1ccc(F)cc1 [BMN-673]; test: surviving fraction relative to DMSO-only wells; higher = less growth inhibition; conditions: exposure time: 5 days
Summary of the method: (§1)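 Surviving fraction was calculated by normalising CellTiter-Glo luminescence to the median of DMSO-only wells. Tumour cell lines in log phase were seeded in 384-well plates at 250–500 cells per well, and 24 hours later were exposed continuously for five days to inhibitors at 0.5, 1, 5, 10, 50, 100, 500 and 1000 nM.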

[2] = compound: CCc1cc(Nc2nccc(-c3c(-c4ccc(OC)c(C(=O)Nc5c(F)cccc5F)c4)nc4ccccn34)n2)c(OC)cc1N1CCC(N2CCN(S(C)(=O)=O)CC2)CC1; test: as above; conditions: exposure time: 5 days
Summary of the method: as §1

Row | Test System | surviving fraction ([1]; 0.5 nM) | surviving fraction ([1]; 1 nM) | surviving fraction ([1]; 5 nM) | surviving fraction ([1]; 10 nM) | surviving fraction ([1]; 50 nM) | surviving fraction ([1]; 100 nM) | surviving fraction ([1]; 500 nM) | surviving fraction ([1]; 1000 nM) | surviving fraction ([2]; 0.5 nM) | surviving fraction ([2]; 1 nM) | surviving fraction ([2]; 5 nM) | surviving fraction ([2]; 10 nM) | surviving fraction ([2]; 50 nM) | surviving fraction ([2]; 100 nM) | surviving fraction ([2]; 500 nM) | surviving fraction ([2]; 1000 nM)
1 | SNU475 LIVER | 1.02 ± 0.034 | 1.01 ± 0.097 | 0.763 ± 0.47 | 0.99 ± 0.032 | 0.882 ± 0.087 | 0.851 ± 0.031 | 0.643 ± 0.025 | 0.508 ± 0.051 | 0.88 ± 0.066 | 0.966 ± 0.042 | 0.982 ± 0.024 | 0.976 ± 0.062 | 0.982 ± 0.025 | 0.956 ± 0.023 | 0.957 ± 0.054 | 0.875 ± 0.061
2 | DU4475 BREAST | 1.1 ± 0.049 | 0.916 ± 0.11 | 0.57 ± 0.055 | 0.456 ± 0.071 | 0.325 ± 0.068 | 0.278 ± 0.054 | 0.284 ± 0.052 | 0.293 ± 0.027 | 0.866 ± 0.12 | 0.937 ± 0.041 | 0.819 ± 0.072 | 1 ± 0.06 | 0.977 ± 0.28 | 0.832 ± 0.27 | 1.11 ± 0.34 | 1.19 ± 0.24
3 | SG31 HEADNECK | 1.18 ± 0.14 | 1.12 ± 0.028 | 1.08 ± 0.24 | 0.911 ± 0.15 | 0.969 ± 0.046 | 0.787 ± 0.09 | 0.916 ± 0.064 | 0.751 ± 0.046 | 0.923 ± 0.036 | 1.08 ± 0.23 | 1.04 ± 0.2 | 0.903 ± 0.099 | 1.04 ± 0.14 | 1.14 ± 0.2 | 1.08 ± 0.26 | 1.1 ± 0.086
4 | SKBR3 BREAST | 1.154 ± 0.0069 | 1.11 ± 0.12 | 0.863 ± 0.15 | 0.881 ± 0.044 | 0.774 ± 0.075 | 0.575 ± 0.078 | 0.492 ± 0.041 | 0.481 ± 0.014 | 1.04 ± 0.12 | 1.06 ± 0.18 | 1.05 ± 0.057 | 0.99 ± 0.089 | 0.983 ± 0.13 | 1.01 ± 0.099 | 0.849 ± 0.082 | 0.664 ± 0.048
5 | MDAMB361 BREAST | 0.804 ± 0.064 | 0.806 ± 0.018 | 0.829 ± 0.013 | 0.82 ± 0.041 | 0.856 ± 0.026 | 0.798 ± 0.07 | 0.782 ± 0.038 | 0.764 ± 0.062 | 0.885 ± 0.088 | 0.947 ± 0.053 | 1.04 ± 0.051 | 0.887 ± 0.052 | 0.879 ± 0.044 | 0.998 ± 0.045 | 0.826 ± 0.041 | 0.726 ± 0.064
6 | ASKA SYNOVIAL | 0.846 ± 0.056 | 0.753 ± 0.041 | 0.625 ± 0.043 | 0.602 ± 0.024 | 0.54 ± 0.062 | 0.427 ± 0.036 | 0.342 ± 0.015 | 0.334 ± 0.016 | 1.16 ± 0.063 | 1.17 ± 0.057 | 1.27 ± 0.088 | 1.16 ± 0.1 | 1.19 ± 0.017 | 1.2 ± 0.03 | 1.18 ± 0.03 | 1.04 ± 0.094
7 | SG28 HEADNECK | 1.09 ± 0.14 | 1.064 ± 0.0085 | 1.12 ± 0.13 | 1.06 ± 0.012 | 1.01 ± 0.12 | 0.996 ± 0.065 | 1.01 ± 0.15 | 1.01 ± 0.074 | 1.01 ± 0.085 | 1.09 ± 0.099 | 1.04 ± 0.099 | 1.07 ± 0.082 | 1.1 ± 0.1 | 1.04 ± 0.041 | 1.22 ± 0.07 | 1.21 ± 0.061
8 | SCC003 HEADNECK | 1.06 ± 0.053 | 1.07 ± 0.035 | 1.04 ± 0.015 | 1.03 ± 0.044 | 0.913 ± 0.019 | 0.713 ± 0.059 | 0.588 ± 0.012 | 0.475 ± 0.066 | 0.958 ± 0.069 | 1.13 ± 0.031 | 0.966 ± 0.024 | 1.1 ± 0.12 | 1.03 ± 0.14 | 1.1 ± 0.19 | 1.03 ± 0.019 | 1.08 ± 0.085
9 | SIHA CERVIX | 1.01 ± 0.055 | 1.03 ± 0.053 | 1.15 ± 0.062 | 1.05 ± 0.013 | 0.929 ± 0.038 | 0.784 ± 0.13 | 0.602 ± 0.035 | 0.454 ± 0.041 | 1.01 ± 0.019 | 1.04 ± 0.071 | 1.06 ± 0.055 | 1.11 ± 0.046 | 1.05 ± 0.084 | 1.18 ± 0.053 | 1.02 ± 0.037 | 1.09 ± 0.034
10 | SYO1 SYNOVIAL | 0.855 ± 0.052 | 0.783 ± 0.023 | 0.499 ± 0.0035 | 0.336 ± 0.0059 | 0.168 ± 0.0078 | 0.125 ± 0.0048 | 0.0544 ± 0.0063 | 0.0423 ± 0.00058 | 0.945 ± 0.041 | 0.992 ± 0.031 | 0.948 ± 0.048 | 0.945 ± 0.045 | 0.969 ± 0.034 | 1.02 ± 0.044 | 0.949 ± 0.03 | 0.895 ± 0.022
11 | HT1080 SOFT TISSUE | 1 ± 0.037 | 0.967 ± 0.042 | 0.73 ± 0.024 | 0.524 ± 0.02 | 0.375 ± 0.018 | 0.312 ± 0.0085 | 0.204 ± 0.0027 | 0.187 ± 0.014 | 1.05 ± 0.037 | 1.05 ± 0.023 | 1.02 ± 0.0067 | 1.03 ± 0.031 | 1.05 ± 0.024 | 1.02 ± 0.038 | 0.9943 ± 0.0058 | 0.946 ± 0.034
12 | SG43 HEADNECK | 1.19 ± 0.23 | 0.909 ± 0.061 | 0.694 ± 0.044 | 0.678 ± 0.046 | 0.74 ± 0.093 | 0.703 ± 0.089 | 0.678 ± 0.091 | 0.785 ± 0.056 | 1.18 ± 0.18 | 1.1 ± 0.26 | 0.948 ± 0.15 | 0.985 ± 0.15 | 1.13 ± 0.046 | 0.908 ± 0.12 | 1.38 ± 0.024 | 1.25 ± 0.3
13 | MCF7 BREAST | 0.952 ± 0.053 | 0.95 ± 0.069 | 0.838 ± 0.029 | 0.802 ± 0.046 | 0.756 ± 0.03 | 0.732 ± 0.026 | 0.679 ± 0.024 | 0.62 ± 0.011 | 0.857 ± 0.036 | 0.905 ± 0.05 | 0.8677 ± 0.0068 | 0.874 ± 0.059 | 0.876 ± 0.013 | 0.897 ± 0.05 | 0.844 ± 0.027 | 0.769 ± 0.027
14 | HELA CERVIX | 1 ± 0.045 | 1 ± 0.058 | 1.07 ± 0.038 | 1.031 ± 0.0089 | 1.1 ± 0.11 | 1.14 ± 0.11 | 0.736 ± 0.037 | 0.606 ± 0.035 | 1.05 ± 0.035 | 1.07 ± 0.04 | 1.08 ± 0.027 | 1.09 ± 0.041 | 1.05 ± 0.05 | 1.07 ± 0.025 | 1.01 ± 0.066 | 0.97 ± 0.026
15 | VP229 BREAST | 1.09 ± 0.33 | 1.09 ± 0.16 | 1.1 ± 0.12 | 0.995 ± 0.091 | 0.969 ± 0.026 | 0.922 ± 0.17 | 0.951 ± 0.1 | 0.873 ± 0.19 | 1.13 ± 0.059 | 1.08 ± 0.033 | 1.24 ± 0.11 | 1.17 ± 0.063 | 1.09 ± 0.13 | 1.09 ± 0.052 | 1.18 ± 0.17 | 0.875 ± 0.12
16 | NY BONE | 1.019 ± 0.0087 | 1.01 ± 0.025 | 1.01 ± 0.037 | 0.934 ± 0.056 | 0.928 ± 0.047 | 0.879 ± 0.033 | 0.501 ± 0.011 | 0.257 ± 0.014 | 0.969 ± 0.012 | 0.982 ± 0.027 | 1.023 ± 0.0066 | 1.09 ± 0.014 | 1.03 ± 0.039 | 1.04 ± 0.023 | 0.993 ± 0.025 | 0.977 ± 0.024
